Reference: US9376425B2, “Heterocyclic compounds as MDM2 inhibitors for the treatment of cancer” (AMGEN INC., priority 2011, dated 2016)

molecular target: T1, human MDM2 (GST-hMDM2 1-188), interaction with biotinylated-p53 (1-83) (Homo sapiens, UniProt Q00987); assay: improved HTRF assay (HTRF2 assay), inhibition of HDM2-p53 interaction; type: binding; conditions: 0.2 nM GST-hMDM2, 0.5 nM biotinylated-p53, 100 mM KF
T1 construct: Amino acid residues 1-188 of human MDM2 were expressed; made in house; host or cells: Escherichia coli
T1 sequence (Q00987 1-188): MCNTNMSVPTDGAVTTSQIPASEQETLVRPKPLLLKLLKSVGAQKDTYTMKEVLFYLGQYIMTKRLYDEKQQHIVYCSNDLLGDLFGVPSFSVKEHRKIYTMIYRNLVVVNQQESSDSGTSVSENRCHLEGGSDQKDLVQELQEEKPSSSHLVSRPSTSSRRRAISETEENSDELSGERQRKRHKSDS
Experimental: Residues 1-83 of human p53 were expressed as an amino-terminal AviTag™-TrxA-6xHis fusion protein (biotinylated p53) in E. coli. Each protein was purified from cell paste by affinity chromatography.
Specifically, 10 uL of GST-hMDM2 was incubated with 10 ul of diluted compound (various concentrations, serially diluted) in 10% DMSO for 20 minutes at room temperature. 20 uL of biotinylated-p53 was added to the GST-hMDM2+ compound mixture, and then incubated at room temperature for 60 min. 10 uL of detection buffer consisting of SA-XLent, anti-GST cryptate antibody and KF was added to GST-hMDM2, biotinylated-p53 and compound reaction and left at room temperature to reach equilibrium for >4 hrs. The final concentration of DMSO in the reaction was 2%. Time-resolved fluorescence readings were measured on a microplate multilabel reader. Percentage of inhibition was calculated relative to nutlin-3.

Compound	IC50 [nM]
CC[C@@H](CN(c1ccccc1F)S(=O)(=O)C1CC1)N1C(=O)[C@@H](CC(=O)NS(C)(=O)=O)O[C@H](c2cccc(Cl)c2)[C@H]1c1ccc(Cl)cc1 (single isomer, unassigned) [Example 240, 2-((2R,5R,6R)-6-(3-chlorophenyl)-5-(4-chlorophenyl)-4-((S)-1-(N-(2-fluorophenyl)cyclopropanesulfonamido)butan-2-yl)-3-oxomorpholin-2-yl)-N-(methylsulfonyl)acetamide or 2-((2S,5R,6R)-6-(3-chlorophenyl)-5-(4-chlorophenyl)-4-((S)-1-(N-(2-fluorophenyl)cyclopropanesulfonamido)butan-2-yl)-3-oxomorpholin-2-yl)-N-(methylsulfonyl)acetamide]	11
CC(C)(C)S(=O)(=O)C[C@H](C1CC1)N1C(=O)[C@@H](CC(=O)Nc2ccccc2F)O[C@H](c2cccc(Cl)c2)[C@H]1c1ccc(Cl)cc1 (single isomer, unassigned) [Example 352, 2-((2R,5R,6R)-4-((S)-2-(tert-Butylsulfonyl)-1-cyclopropylethyl)-6-(3-chlorophenyl)-5-(4-chlorophenyl)-3-oxomorpholin-2-yl)-N-(2-fluorophenyl)acetamide or 2-((2S,5R,6R)-4-((S)-2-(tert-butylsulfonyl)-1-cyclopropylethyl)-6-(3-chlorophenyl)-5-(4-chlorophenyl)-3-oxomorpholin-2-yl)-N-(2-fluorophenyl)acetamide]	25
CC[C@@H](CN(c1ccccc1F)S(=O)(=O)C1CC1)N1C(=O)[C@@](C)(CC(=O)O)O[C@H](c2cccc(Cl)c2)[C@H]1c1ccc(Cl)cc1 (single isomer, unassigned) [Example 329, 2-((2R,5R,6R)-6-(3-Chlorophenyl)-5-(4-chlorophenyl)-4-((S)-1-(N-(2-fluorophenyl)cyclopropanesulfonamido)butan-2-yl)-2-methyl-3-oxomorpholin-2-yl)acetic acid or 2-((2S,5R,6R)-6-(3-chlorophenyl)-5-(4-chlorophenyl)-4-((S)-1-(N-(2-fluorophenyl)cyclopropanesulfonamido)butan-2-yl)-2-methyl-3-oxomorpholin-2-yl)acetic acid]	138
CC(C)S(=O)(=O)[C@H]1CCC[C@@H]1N1C(=O)[C@@H](CC(=O)O)O[C@H](c2cccc(Cl)c2)[C@H]1c1ccc(Cl)cc1 (single isomer, unassigned) [Example 421]	13600
Methyl 2-((2R,5R,6R)-6-(3-chlorophenyl)-5-(4-chlorophenyl)-4-((S)-1-((2-(dimethylamino)ethyl)sulfonyl)butan-2-yl)-3-oxomorpholin-2-yl)acetate and methyl 2-((2S,5R,6R)-6-(3-chlorophenyl)-5-(4-chlorophenyl)-4-((S)-1-((2-(dimethylamino)ethyl)sulfonyl)butan-2-yl)-3-oxomorpholin-2-yl)acetate [Example 246]	6
NC(=O)C[C@H]1O[C@H](c2cccc(Cl)c2)[C@@H](c2ccc(Cl)cc2)N([C@H](CN(c2ccccc2F)S(=O)(=O)C2CC2)C2CC2)C1=O (single isomer, unassigned) [Example 257, 2-((2R,5R,6R)-6-(3-chlorophenyl)-5-(4-chlorophenyl)-4-((S)-1-cyclopropyl-2-(N-(2-fluorophenyl)cyclopropanesulfonamido)ethyl)-3-oxomorpholin-2-yl)acetamide or 2-((2S,5R,6R)-6-(3-chlorophenyl)-5-(4-chlorophenyl)-4-((S)-1-cyclopropyl-2-(N-(2-fluorophenyl)cyclopropanesulfonamido)ethyl)-3-oxomorpholin-2-yl)acetamide]	< 1
CC[C@@H]([C@H](C)S(=O)(=O)C(C)C)N1C(=O)[C@@H](CC(=O)O)O[C@H](c2cccc(Cl)c2)[C@H]1c1ccc(Cl)cc1 (single isomer, unassigned) [Example 415]	1
O=C(O)C[C@H]1O[C@H](c2cccc(Cl)c2)[C@@H](c2ccc(Cl)cc2)N([C@H](CS(=O)(=O)c2ccncc2)C2CC2)C1=O (single isomer, unassigned) [Example 286, 2-((2R,5R,6R)-6-(3-Chlorophenyl)-5-(4-chlorophenyl)-4-((S)-1-cyclopropyl-2-(pyridin-4-ylsulfonyl)ethyl)-3-oxomorpholin-2-yl)acetic acid or 2-((2S,5R,6R)-6-(3-chlorophenyl)-5-(4-chlorophenyl)-4-((S)-1-cyclopropyl-2-(pyridin-4-ylsulfonyl)ethyl)-3-oxomorpholin-2-yl)acetic acid]	2
CC(C)(C#N)S(=O)(=O)C[C@H](C1CC1)N1C(=O)[C@@H](CC(=O)O)O[C@H](c2cccc(Cl)c2)[C@H]1c1ccc(Cl)cc1 (single isomer, unassigned) [Example 291, 2-((2R,5R,6R)-6-(3-Chlorophenyl)-5-(4-chlorophenyl)-4-((S)-2-((2-cyanopropan-2-yl)sulfonyl)-1-cyclopropylethyl)-3-oxomorpholin-2-yl)acetic acid or 2-((2S,5R,6R)-6-(3-chlorophenyl)-5-(4-chlorophenyl)-4-((S)-2-((2-cyanopropan-2-yl)sulfonyl)-1-cyclopropylethyl)-3-oxomorpholin-2-yl)acetic acid]	< 1
O=C(O)C[C@H]1O[C@H](c2cccc(Cl)c2)[C@@H](c2ccc(Cl)cc2)N([C@H](CS(=O)(=O)c2ccncc2)C2CC2)C1=O (single isomer, unassigned) [Example 287, 2-((2R,5R,6R)-6-(3-Chlorophenyl)-5-(4-chlorophenyl)-4-((S)-1-cyclopropyl-2-(pyridin-4-ylsulfonyl)ethyl)-3-oxomorpholin-2-yl)acetic acid or 2-((2S,5R,6R)-6-(3-chlorophenyl)-5-(4-chlorophenyl)-4-((S)-1-cyclopropyl-2-(pyridin-4-ylsulfonyl)ethyl)-3-oxomorpholin-2-yl)acetic acid]	5
CC(C)(C)NS(=O)(=O)C[C@H](C1CC1)N1C(=O)[C@@H](CC(=O)O)O[C@H](c2cccc(Cl)c2)[C@H]1c1ccc(Cl)cc1 (single isomer, unassigned) [Example 293, 2-((2R,5R,6R)-4-((S)-2-(N-(tert-Butyl)sulfamoyl)-1-cyclopropylethyl)-6-(3-chlorophenyl)-5-(4-chlorophenyl)-3-oxomorpholin-2-yl)acetic acid or 2-((2S,5R,6R)-4-((S)-2-(N-(tert-butyl)sulfamoyl)-1-cyclopropylethyl)-6-(3-chlorophenyl)-5-(4-chlorophenyl)-3-oxomorpholin-2-yl)acetic acid]	1
CC[C@@H](CS(=O)(=O)C(C)(C)C)N1C(=O)[C@H](CCO)O[C@H](c2cccc(Cl)c2)[C@H]1c1ccc(Cl)cc1 [Example 151, (2S,5R,6R)-4-((S)-1-(tert-butylsulfonyl)butan-2-yl)-6-(3-chlorophenyl)-5-(4-chlorophenyl)-2-(2-hydroxyethyl)morpholin-3-one]	22
CC[C@@H](CS(=O)(=O)C(C)(C)C)N1C(=O)[C@@H](CCO)O[C@H](c2cccc(Cl)c2)[C@H]1c1ccc(Cl)cc1 [Example 152, (2R,5R,6R)-4-((S)-1-(tert-butylsulfonyl)butan-2-yl)-6-(3-chlorophenyl)-5-(4-chlorophenyl)-2-(2-hydroxyethyl)morpholin-3-one]	37
CC[C@@H](CCS(=O)(=O)C(C)(C)C)N1C(=O)[C@@H](CC(=O)O)O[C@H](c2cccc(Cl)c2)[C@H]1c1ccc(Cl)cc1 (single isomer, unassigned) [Example 220, 2-((2R,5R,6R)-4-((S)-1-(tert-butylsulfonyl)pentan-3-yl)-6-(3-chlorophenyl)-5-(4-chlorophenyl)-3-oxomorpholin-2-yl)acetic acid or 2-((2S,5R,6R)-4-((S)-1-(tert-butylsulfonyl)pentan-3-yl)-6-(3-chlorophenyl)-5-(4-chlorophenyl)-3-oxomorpholin-2-yl)acetic acid]	9
CC[C@@H](CN(c1ccccc1F)S(=O)(=O)C1CC1)N1C(=O)[C@@H]([C@@H](C)C(=O)O)O[C@H](c2cccc(Cl)c2)[C@H]1c1ccc(Cl)cc1 (single isomer, unassigned) [Example 255]	4
CC(C)(C)S(=O)(=O)C[C@H](CC(F)(F)F)N1C(=O)[C@@H](CC(N)=O)O[C@H](c2cccc(Cl)c2)[C@H]1c1ccc(Cl)cc1 (single isomer, unassigned) [Example 362, 2-((2R,5R,6R)-4-((S)-1-(tert-Butylsulfonyl)-4,4,4-trifluorobutan-2-yl)-6-(3-chlorophenyl)-5-(4-chlorophenyl)-3-oxomorpholin-2-yl)acetamide or 2-((2S,5R,6R)-4-((S)-1-(tert-butylsulfonyl)-4,4,4-trifluorobutan-2-yl)-6-(3-chlorophenyl)-5-(4-chlorophenyl)-3-oxomorpholin-2-yl)acetamide]	20
CC(C)(C)S(=O)(=O)C[C@H](C1CC1)N1C(=O)[C@@H](Cc2ncn[nH]2)O[C@H](c2cccc(Cl)c2)[C@H]1c1ccc(Cl)cc1 (single isomer, unassigned) [Example 390, (2R,5R,6R)-2-((1H-1,2,4-Triazol-5-yl)methyl)-4-((S)-2-(tert-butylsulfonyl)-1-cyclopropylethyl)-6-(3-chlorophenyl)-5-(4-chlorophenyl)morpholin-3-one or (2S,5R,6R)-2-((1H-1,2,4-triazol-5-yl)methyl)-4-((S)-2-(tert-butylsulfonyl)-1-cyclopropylethyl)-6-(3-chlorophenyl)-5-(4-chlorophenyl)morpholin-3-one]	11
